Assay results taken from US20240350522A1, “HYGROMYCIN A FOR TREATMENT OF DISEASES AND INFECTIONS” (FLIGHTPATH BIOSCIENCES, INC., priority 2021, published 2024).
Several values for one entry are separate records, joined by “and”; a condition that tells them apart may be missing. Equal entries are not always repeated. Where two headings read alike, the source gives them in different places.

What was measured:
[1] = tested on: Streptococcus salivarius ATCC13419; test: MIC of Hyg A against S. salivarius; assay type: cell-based
[2] = tested on: Fusobacterium nucleatum (ATCC 25586); test: MIC of Hyg A against F. nucleatum ATCC 25586; assay type: cell-based; settings: ATCC25586
[3] = tested on: Treponema pallidum pallidum Chicago strain; test: T. pallidum susceptibility assay, co-culture with Sf1Ep cells, tp0574 (T47) qPCR after 7 days; assay type: cell-based; settings: for Mean T47 copies/μL, Avg. / Mean T47 copies/μL, experimental values: 7 days; for Mean T47 copies/μL, Avg.: average of 8 replicates; for Mean T47 copies/μL, experimental values: replicate wells
Treponema denticola [4] = test: MIC of Hyg A against Treponema denticola strains (broth dilution, phenol red); assay type: cell-based; settings: for MIC: Treponema denticola
SF1Ep cells = test: Cytotoxicity assay, Cell Proliferation Reagent WST-1; assay type: cell-based, rabbit; settings: day 7; any concentration tested (0.03-3.84 μg/mL)
Experimental: Cytotoxicity assay was performed according to the Cell Proliferation Reagent WST-1 protocol (Attached; Roche, Basel, Switzerland). Absorbance was measured after 1 hour incubation with the reagent.

[5] = tested on: Fusobacterium nucleatum (ATCC 25586); test: MBC of Hyg A against F. nucleatum ATCC 25586; assay type: cell-based; settings: for MBC: ATCC25586
Treponema denticola [6] = test: MBC of Hyg A against Treponema denticola strains; assay type: cell-based

Compound: CC(=O)[C@H]1O[C@@H](Oc2ccc(/C=C(\C)C(=O)N[C@@H]3[C@H](O)[C@@H](O)[C@H]4OCO[C@H]4[C@@H]3O)cc2O)[C@@H](O)[C@@H]1O [Hyg A, Hygromycin A]
- MIC ([1]; Streptococcus salivarius ATCC13419, read-out: MIC): 10 µg/mL
- MIC ([1]; Streptococcus salivarius, ATCC13419, 96 h, S. salivarius, 5% CO2, extended incubation (4 days), read-out: MIC): 20 µg/mL
- MIC ([1]; Streptococcus salivarius, ATCC13419, S. salivarius 13419, experiment 1, read-out: MIC (μg/ml) 1): 10 µg/mL
- MIC ([1]; Streptococcus salivarius, ATCC13419, S. salivarius 13419, experiment 2, read-out: MIC (μg/ml) 2): 10 µg/mL
- MIC ([1]; Streptococcus salivarius, ATCC13419, S. salivarius, 5% CO2, 24 hours incubation, read-out: MIC): 10 µg/mL
- MIC ([2]; Fusobacterium nucleatum ATCC 25586, read-out: MIC): ~1 µg/mL
- MIC ([2]; Fusobacterium nucleatum, F. nucleatum 25586, experiment 1, read-out: MIC (μg/ml) 1): 1 µg/mL
- MIC ([2]; Fusobacterium nucleatum, F. nucleatum 25586, experiment 2, read-out: MIC (μg/ml) 2): 1 µg/mL
- lowest concentration effective against growth (no significant difference to higher concentrations) ([3]; Chicago strain, ANOVA p<0.05): 0.12 µg/mL
- Mean T47 copies/μL, Avg. ([3]; Hyg A 0.03 μg/ml): 7184 copies/μL
- Mean T47 copies/μL, experimental values ([3]; Hyg A 0.03 μg/ml): 2531 copies/μL and 7304 copies/μL and 8369 copies/μL and 7552 copies/μL and 6189 copies/μL and 9263 copies/μL and 8429 copies/μL and 7834 copies/μL
- Mean T47 copies/μL, Avg. ([3]; Hyg A 0.06 μg/ml): 1814 copies/μL
- Mean T47 copies/μL, experimental values ([3]; Hyg A 0.06 μg/ml): 1336 copies/μL and 1882 copies/μL and 1716 copies/μL and 2225 copies/μL and 1815 copies/μL and 2044 copies/μL and 2022 copies/μL and 1476 copies/μL
- Mean T47 copies/μL, Avg. ([3]; Hyg A 0.12 μg/ml): 674 copies/μL
- Mean T47 copies/μL, experimental values ([3]; Hyg A 0.12 μg/ml): 449 copies/μL and 775 copies/μL and 689 copies/μL and 776 copies/μL and 788 copies/μL and 670 copies/μL and 704 copies/μL and 545 copies/μL
- Mean T47 copies/μL, Avg. ([3]; Hyg A 0.24 μg/ml): 576 copies/μL
- Mean T47 copies/μL, experimental values ([3]; Hyg A 0.24 μg/ml): 360 copies/μL and 447 copies/μL and 513 copies/μL and 890 copies/μL and 775 copies/μL and 636 copies/μL and 565 copies/μL and 424 copies/μL
- Mean T47 copies/μL, Avg. ([3]; Hyg A 0.48 μg/ml): 457 copies/μL
- Mean T47 copies/μL, experimental values ([3]; Hyg A 0.48 μg/ml): 341 copies/μL and 475 copies/μL and 462 copies/μL and 614 copies/μL and 548 copies/μL and 509 copies/μL and 425 copies/μL and 280 copies/μL
- Mean T47 copies/μL, Avg. ([3]; Hyg A 0.96 μg/ml): 397 copies/μL
- Mean T47 copies/μL, experimental values ([3]; Hyg A 0.96 μg/ml): 271 copies/μL and 393 copies/μL and 520 copies/μL and 528 copies/μL and 402 copies/μL and 418 copies/μL and 372 copies/μL and 273 copies/μL
- Mean T47 copies/μL, Avg. ([3]; Hyg A 1.92 μg/ml): 451 copies/μL
- Mean T47 copies/μL, experimental values ([3]; Hyg A 1.92 μg/ml): 301 copies/μL and 422 copies/μL and 453 copies/μL and 556 copies/μL and 585 copies/μL and 546 copies/μL and 464 copies/μL and 279 copies/μL
- Mean T47 copies/μL, Avg. ([3]; Hyg A 3.84 μg/ml): 493 copies/μL
- Mean T47 copies/μL, experimental values ([3]; Hyg A 3.84 μg/ml): 324 copies/μL and 470 copies/μL and 612 copies/μL and 487 copies/μL and 485 copies/μL and 532 copies/μL and 618 copies/μL and 412 copies/μL
- MIC (Treponema denticola [4]; ATCC35404, ATCC 35404, strain most tolerant, read-out: MIC): 5 µg/mL
- MIC (Treponema denticola [4]; ATCC35404, ATCC strain 35404, range, read-out: MIC): 0.5 to 5 µg/mL
- MIC (Treponema denticola [4]; ATCC35405, Type strain ATCC 35405, read-out: MIC): 0.2 µg/mL
- MIC (Treponema denticola [4]; T. denticola 33520, experiment 1, read-out: MIC (μg/ml) 1): 1 µg/mL
- MIC (Treponema denticola [4]; T. denticola 33520, experiment 2, read-out: MIC (μg/ml) 2): 1 µg/mL
- MIC (Treponema denticola [4]; T. denticola 33521, experiment 1, read-out: MIC (μg/ml) 1): 0.5 µg/mL
- MIC (Treponema denticola [4]; T. denticola 33521, experiment 2, read-out: MIC (μg/ml) 2): 2 µg/mL
- MIC (Treponema denticola [4]; T. denticola 35404, experiment 1, read-out: MIC (μg/ml) 1): 0.5 to 1 µg/mL
- MIC (Treponema denticola [4]; T. denticola 35404, experiment 2, read-out: MIC (μg/ml) 2): 5 µg/mL
- MIC (Treponema denticola [4]; T. denticola 35405, experiment 1, read-out: MIC (μg/ml) 1): 0.2 µg/mL
- MIC (Treponema denticola [4]; T. denticola 35405, experiment 2, read-out: MIC (μg/ml) 2): 0.2 µg/mL
- MIC (Treponema denticola [4]; T. denticola ASLM, experiment 1, read-out: MIC (μg/ml) 1): 0.5 µg/mL
- MIC (Treponema denticola [4]; T. denticola ASLM, experiment 2, read-out: MIC (μg/ml) 2): 1 µg/mL
- MIC (Treponema denticola [4]; T. denticola H1-T, experiment 1, read-out: MIC (μg/ml) 1): 0.5 µg/mL
- MIC (Treponema denticola [4]; T. denticola H1-T, experiment 2, read-out: MIC (μg/ml) 2): 0.5 µg/mL
- MIC (Treponema denticola [4]; T. denticola OTK, experiment 1, read-out: MIC (μg/ml) 1): 0.5 µg/mL
- MIC (Treponema denticola [4]; T. denticola OTK, experiment 2, read-out: MIC (μg/ml) 2): 1 µg/mL
- MIC (Treponema denticola [4]; T. denticola SP44, experiment 1, read-out: MIC (μg/ml) 1): 1 µg/mL
- MIC (Treponema denticola [4]; T. denticola SP44, experiment 2, read-out: MIC (μg/ml) 2): 1 µg/mL
- MIC (Treponema denticola [4]; T. denticola US Trep, experiment 1, read-out: MIC (μg/ml) 1): 0.5 µg/mL
- MIC (Treponema denticola [4]; T. denticola US Trep, experiment 2, read-out: MIC (μg/ml) 2): 0.5 µg/mL
- MIC (Treponema denticola [4]; across T. denticola strains, read-out: MIC values for Treponema denticola strains, typical): ~0.5 µg/mL
- MIC (Treponema denticola [4]; low passage clinical isolate ASLM, read-out: MIC (Hyg A sensitivity)): 0.2 µg/mL
- MIC (Treponema denticola [4]; low passage clinical isolate SP44, read-out: MIC (Hyg A sensitivity)): 1 µg/mL
- MIC values for Treponema denticola strains, range (Treponema denticola [4]; across T. denticola strains): 0.2 to 1.0 µg/mL
- toxicity to SF1Ep cells (WST-1) (SF1Ep cells): not toxic
- MBC ([5]; Fusobacterium nucleatum ATCC 25586, read-out: MBC): ~1 µg/mL
- MIC:MBC ratio ([5]; F. nucleatum 25586): 1.0
- MBC ([5]; Fusobacterium nucleatum, F. nucleatum 25586, experiment 1, read-out: MBC (μg/ml) 1): 1 µg/mL
- MBC ([5]; Fusobacterium nucleatum, F. nucleatum 25586, experiment 2, read-out: MBC (μg/ml) 2): 1 µg/mL
- MIC:MBC ratio (Treponema denticola [6]; T. denticola 33520): 0.2-1.0
- MIC:MBC ratio (Treponema denticola [6]; T. denticola 33521): 0.3-1.0
- MIC:MBC ratio (Treponema denticola [6]; T. denticola 35404): 0.1-1.0
- MIC:MBC ratio (Treponema denticola [6]; T. denticola 35405): 0.2-0.4
- MIC:MBC ratio (Treponema denticola [6]; T. denticola ASLM): 0.5-1.0
- MIC:MBC ratio (Treponema denticola [6]; T. denticola H1-T): 1.0
- MIC:MBC ratio (Treponema denticola [6]; T. denticola OTK): 0.5-1.0
- MIC:MBC ratio (Treponema denticola [6]; T. denticola SP44): 0.5-2.0
- MIC:MBC ratio (Treponema denticola [6]; T. denticola US Trep): 0.5
